Source: patent US20200405697A1, “Antitumor Agent” (Taiho Pharmaceutical Co., Ltd, priority 2017, published 2020)

These compounds were tested against T1, human RNR (histidine tagged human M1 and human M2 proteins) (Homo sapiens, UniProt P23921) (assay: Human RNR inhibition effect (dCDP formation from CDP)). Conditions: 10 μM CDP, 37° C. for 30 minutes, read-out: RNR inhibitory activity IC50.
T1 construct: made in house; host or cells: Escherichia coli
T1 sequence (P23921 1-792): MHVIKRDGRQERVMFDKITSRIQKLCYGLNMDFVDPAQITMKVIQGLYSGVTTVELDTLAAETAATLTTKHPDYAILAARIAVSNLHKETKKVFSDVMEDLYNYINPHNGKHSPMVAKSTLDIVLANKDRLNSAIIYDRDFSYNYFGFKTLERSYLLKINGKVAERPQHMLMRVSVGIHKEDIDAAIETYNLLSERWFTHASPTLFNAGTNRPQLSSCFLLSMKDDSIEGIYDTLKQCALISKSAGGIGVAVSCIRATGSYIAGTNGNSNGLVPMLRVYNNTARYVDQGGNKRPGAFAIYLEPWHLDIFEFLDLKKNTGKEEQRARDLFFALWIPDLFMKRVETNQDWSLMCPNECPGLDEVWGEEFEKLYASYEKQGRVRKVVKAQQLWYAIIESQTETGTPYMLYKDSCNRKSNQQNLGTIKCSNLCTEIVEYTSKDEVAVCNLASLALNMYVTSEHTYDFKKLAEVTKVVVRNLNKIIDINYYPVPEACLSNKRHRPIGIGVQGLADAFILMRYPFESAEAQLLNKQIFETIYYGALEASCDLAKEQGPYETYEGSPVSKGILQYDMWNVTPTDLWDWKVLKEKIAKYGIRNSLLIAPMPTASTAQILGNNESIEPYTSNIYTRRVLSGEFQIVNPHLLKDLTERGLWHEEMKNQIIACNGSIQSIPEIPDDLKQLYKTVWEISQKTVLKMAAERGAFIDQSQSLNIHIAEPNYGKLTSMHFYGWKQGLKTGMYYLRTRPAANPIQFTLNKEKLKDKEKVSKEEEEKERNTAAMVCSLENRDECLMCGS
Type: biochemical
Procedure, shortened: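 His-tagged human M1 (isoform 1) and N-terminal 59-aa-truncated M2 (isoform 2), E. coli-expressed, Ni-purified, preincubated 20 min with compound (1% DMSO). Reaction with 10 μM CDP, 2 mM ATP, 0.24 mM NADPH, 6 mM DTT, 4 mM Mg acetate, 100 mM KCl, 50 mM HEPES pH 7.2, 30 min at 37° C. dCDP formed quantified by reverse-phase HPLC after heat stop.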

| IC50 [nM] | Compound |
| --- | --- |
| 180 | Cc1ccc(F)c([C@@H](C)[C@H](NS(=O)(=O)c2ccc(Cl)c(C(=O)N3CCC4(CCC4)C3)n2)c2n[nH]c(=O)o2)c1C [Example 115, 5-chloro-N-((1S,2R)-2-(6-fluoro-2,3-dimethylphenyl)-1-(5-oxo-4,5-dihydro-1,3,4-oxadiazol-2-yl)propyl)-6-(6-azaspiro[3.4]octane-6-carbonyl)pyridine-2-sulfonamide] |
| 30 | Cc1ccc(F)c([C@@H](C)[C@H](NS(=O)(=O)c2ccc(Cl)c(C(=O)N3CC4CCC(C3)O4)n2)c2n[nH]c(=O)o2)c1C [Example 117, 6-(8-oxa-3-azabicyclo[3.2.1]octane-3-carbonyl)-5-chloro-N-((1S,2R)-2-(6-fluoro-2,3-dimethylphenyl)-1-(5-oxo-4,5-dihydro-1,3,4-oxadiazol-2-yl)propyl)pyridine-2-sulfonamide] |
| 340 | COC(=O)c1cc(Cl)cnc1S(=O)(=O)N[C@H](c1n[nH]c(=O)o1)[C@H](C)c1c(F)ccc(C)c1C [Example 118, methyl 5-chloro-2-(N-((1S,2R)-2-(6-fluoro-2,3-dimethylphenyl)-1-(5-oxo-4,5-dihydro-1,3,4-oxadiazol-2-yl)propyl)sulfamoyl)nicotinate] |
| 450 | COC(=O)c1cc(Br)cnc1S(=O)(=O)N[C@H](c1n[nH]c(=O)o1)[C@H](C)c1c(F)ccc(C)c1C [Example 119, methyl 5-bromo-2-(N-((1S,2R)-2-(6-fluoro-2,3-dimethylphenyl)-1-(5-oxo-4,5-dihydro-1,3,4-oxadiazol-2-yl)propyl)sulfamoyl)nicotinate] |
| 430 | COc1c(S(=O)(=O)N[C@H](c2n[nH]c(=O)o2)[C@H](C)c2c(F)ccc(C)c2C)ncc(Cl)c1C(C)OC(C)=O (stereo partly drawn) [Example 120, 1-(5-chloro-2-(N-((1S,2R)-2-(6-fluoro-2,3-dimethylphenyl)-1-(5-oxo-4,5-dihydro-1,3,4-oxadiazol-2-yl)propyl)sulfamoyl)-3-methoxypyridin-4-yl)ethylacetate] |
| 110 | CC(=O)OC1(C(F)(F)F)CCOc2c(S(=O)(=O)N[C@H](c3n[nH]c(=O)o3)[C@H](C)c3c(F)ccc(C)c3C)ccc(Cl)c21 (stereo partly drawn) [Example 123, 5-chloro-8-(N-((1S,2R)-2-(6-fluoro-2,3-dimethylphenyl)-1-(5-oxo-4,5-dihydro-1,3,4-oxadiazol-2-yl)propyl)sulfamoyl)-4-(trifluoromethyl)chroman-4-ylacetate] |
| 90 | Cc1c(Br)ccc(F)c1[C@@H](C)[C@H](NS(=O)(=O)c1ccc(Cl)c2c1OCCC2=O)c1n[nH]c(=O)o1 [Example 124, N-((1S,2R)-2-(3-bromo-6-fluoro-2-methylphenyl)-1-(5-oxo-4,5-dihydro-1,3,4-oxadiazol-2-yl)propyl)-5-chloro-4-oxochroman-8-sulfonamide] |
| 100 | [2H]C([2H])([2H])C1(OC(C)=O)CCOc2c(S(=O)(=O)N[C@H](c3n[nH]c(=O)o3)[C@H](C)c3c(F)ccc(C)c3C)ccc(Cl)c21 (stereo partly drawn) [Example 129, 5-Chloro-8-(N-((1S,2R)-2-(6-fluoro-2,3-dimethylphenyl)-1-(5-oxo-4,5-dihydro-1,3,4-oxadiazol-2-yl)propyl)sulfamoyl)-4-methyl-d3-chroman-4-yl Acetate] |
| 590 | COc1cc(Br)ccc1S(=O)(=O)N[C@H](c1n[nH]c(=O)o1)[C@H](C)c1cccc2c1CCC2 [Example 137, 4-bromo-N-((1S,2R)-2-(2,3-dihydro-1H-inden-4-yl)-1-(5-oxo-4,5-dihydro-1,3,4-oxadiazol-2-yl)propyl)-2-methoxybenzenesulfonamide] |
| 210 | CC(=O)OC(C)c1nc(S(=O)(=O)N[C@H](c2n[nH]c(=O)o2)[C@H](C)c2cccc3c2CCC3)ccc1Cl (stereo partly drawn) [Example 142, 1-(3-chloro-6-(N-((1S,2R)-2-(2,3-dihydro-1H-inden-4-yl)-1-(5-oxo-4,5-dihydro-1,3,4-oxadiazol-2-yl)propyl)sulfamoyl)pyridin-2-yl)ethylacetate] |
| 170 | COc1c(S(=O)(=O)N[C@H](c2n[nH]c(=O)o2)[C@H](C)c2c(F)ccc(C)c2C)ccc(Cl)c1C(C)OC(C)=O (stereo partly drawn) [Example 144, 1-(6-chloro-3-(N-((1S,2R)-2-(6-fluoro-2,3-dimethylphenyl)-1-(5-oxo-4,5-dihydro-1,3,4-oxadiazol-2-yl)propyl)sulfamoyl)-2-methoxyphenyl)ethyl acetate] |
| 440 | Cc1ccc(F)c([C@@H](C)[C@H](NS(=O)(=O)c2ccc(Cl)cc2OCC(F)F)c2n[nH]c(=O)o2)c1C [Example 145, 4-chloro-2-(2,2-difluoroethoxy)-N-((1S,2R)-2-(6-fluoro-2,3-dimethylphenyl)-1-(5-oxo-4,5-dihydro-1,3,4-oxadiazol-2-yl)propyl)benzenesulfonamide] |
| 260 | Cc1ccc(F)c([C@@H](C)[C@H](NS(=O)(=O)c2ccc(Cl)cc2OC(F)F)c2n[nH]c(=O)o2)c1C [Example 146, 4-chloro-2-(difluoromethoxy)-N-((1S,2R)-2-(6-fluoro-2,3-dimethylphenyl)-1-(5-oxo-4,5-dihydro-1,3,4-oxadiazol-2-yl)propyl)benzenesulfonamide] |
| 270 | CC(=O)c1cc(Cl)ccc1S(=O)(=O)N[C@H](c1n[nH]c(=O)o1)[C@H](C)c1c(F)ccc(C)c1C [Example 147, 2-acetyl-4-chloro-N-((1S,2R)-2-(6-fluoro-2,3-dimethylphenyl)-1-(5-oxo-4,5-dihydro-1,3,4-oxadiazol-2-yl)propyl)benzenesulfonamide] |
| 100 | COc1nc(Cl)ccc1S(=O)(=O)N[C@H](c1n[nH]c(=O)o1)[C@H](C)c1c(F)ccc(C)c1C [Example 148, 6-chloro-N-((1S,2R)-2-(6-fluoro-2,3-dimethylphenyl)-1-(5-oxo-4,5-dihydro-1,3,4-oxadiazol-2-yl)propyl)-2-methoxypyridine-3-sulfonamide] |
| 410 | Cc1ccc(S(=O)(=O)N[C@H](c2n[nH]c(=O)o2)[C@H](C)c2c(F)ccc(C)c2C)cc1 [Example 151, N-((1S,2R)-2-(6-fluoro-2,3-dimethylphenyl)-1-(5-oxo-4,5-dihydro-1,3,4-oxadiazol-2-yl)propyl)-4-methylbenzenesulfonamide] |
| 710 | Cc1ccc(F)c([C@@H](C)[C@H](NS(=O)(=O)c2cccc3[nH]ccc23)c2n[nH]c(=O)o2)c1C [Example 152, N-((1S,2R)-2-(6-fluoro-2,3-dimethylphenyl)-1-(5-oxo-4,5-dihydro-1,3,4-oxadiazol-2-yl)propyl)-1H-indole-4-sulfonamide] |
| 110 | Cc1ccc(F)c([C@@H](C)[C@H](NS(=O)(=O)c2ccc(Cl)c3cccnc23)c2n[nH]c(=O)o2)c1C [Example 153, 5-chloro-N-((1S,2R)-2-(6-fluoro-2,3-dimethylphenyl)-1-(5-oxo-4,5-dihydro-1,3,4-oxadiazol-2-yl)propyl)quinoline-8-sulfonamide] |

| Compound | IC50 [nM] |
| --- | --- |
| Cc1ccc(F)c([C@@H](C)[C@H](NS(=O)(=O)c2ccc(Cl)c(C(=O)N3C4CCC3COC4)n2)c2n[nH]c(=O)o2)c1C [Example 116, 6-(3-oxa-8-azabicyclo[3.2.1]octane-8-carbonyl)-5-chloro-N-((1S,2R)-2-(6-fluoro-2,3-dimethylphenyl)-1-(5-oxo-4,5-dihydro-1,3,4-oxadiazol-2-yl)propyl)pyridine-2-sulfonamide] | 70 |
